PubChem BioAssay AID1259407 (Chemical Carcinogenesis Research Information System (CCRIS), 2018)
Calls of active or inactive are those of the source. The rule behind the calls is not given here.

Tested on: CCRIS mutagenicity, Ames/micronucleus/aberration tests
Test: CCRIS mutagenicity studies
[1] = Test System: AMES SALMONELLA TYPHIMURIUM, Strain/Indicator: TA98, Metabolic Activation: NONE, Method: PREINCUBATION
[2] = Test System: AMES SALMONELLA TYPHIMURIUM, Strain/Indicator: TA100, Metabolic Activation: NONE, Method: PREINCUBATION
[3] = Test System: AMES SALMONELLA TYPHIMURIUM, Strain/Indicator: TA98, Metabolic Activation: NONE, Method: STANDARD PLATE
[4] = Test System: AMES SALMONELLA TYPHIMURIUM, Strain/Indicator: TA100, Metabolic Activation: NONE, Method: STANDARD PLATE

SMILES: [Br][Pt-2]([Br])([Br])([Br])([Br])[Br]
- mutagenic call [1]: inactive; negative
- mutagenic call (Test System: AMES SALMONELLA TYPHIMURIUM, Strain/Indicator: TA98, Metabolic Activation: RAT, LIVER, S-9, AROCLOR 1254, Method: PREINCUBATION): inactive; negative
- mutagenic call [2]: inactive; negative
- mutagenic call (Test System: AMES SALMONELLA TYPHIMURIUM, Strain/Indicator: TA100, Metabolic Activation: RAT, LIVER, S-9, AROCLOR 1254, Method: PREINCUBATION): inactive; negative

SMILES: CCC(C)(C)c1cc(-n2nc3ccccc3n2)c(O)c(C(C)(C)CC)c1
- mutagenic call (Test System: AMES SALMONELLA TYPHIMURIUM, Strain/Indicator: TA97, Metabolic Activation: NONE, Method: STANDARD PLATE): inactive; negative
- mutagenic call (Test System: AMES SALMONELLA TYPHIMURIUM, Strain/Indicator: TA97, Metabolic Activation: S-9, Method: STANDARD PLATE): inactive; negative
- mutagenic call [3]: inactive; negative
- mutagenic call (Test System: AMES SALMONELLA TYPHIMURIUM, Strain/Indicator: TA98, Metabolic Activation: S-9, Method: STANDARD PLATE): inactive; negative
- mutagenic call [4]: inactive; negative
- mutagenic call (Test System: AMES SALMONELLA TYPHIMURIUM, Strain/Indicator: TA100, Metabolic Activation: S-9, Method: STANDARD PLATE): inactive; negative
- mutagenic call (Test System: AMES SALMONELLA TYPHIMURIUM, Strain/Indicator: TA102, Metabolic Activation: NONE, Method: STANDARD PLATE): inactive; negative
- mutagenic call (Test System: AMES SALMONELLA TYPHIMURIUM, Strain/Indicator: TA102, Metabolic Activation: S-9, Method: STANDARD PLATE): inactive; negative
- mutagenic call (Test System: E.COLI, Strain/Indicator: WP2 (PKM101), Metabolic Activation: NONE, Method: STANDARD PLATE): inactive; negative
- mutagenic call (Test System: E.COLI, Strain/Indicator: WP2 (PKM101), Metabolic Activation: S-9, Method: STANDARD PLATE): inactive; negative

SMILES: Cc1cn(CC(O)CN=[N+]=[N-])c(=O)[nH]c1=O (stereo unspecified)
- mutagenic call [4]: active; positive

SMILES: Cc1occc(=O)c1[O-].Cc1occc(=O)c1[O-].Cc1occc(=O)c1[O-].[Al+3]
- mutagenic call (Test System: AMES SALMONELLA TYPHIMURIUM, Strain/Indicator: TA92, Metabolic Activation: NONE, Method: STANDARD PLATE): inactive; negative
- mutagenic call [3]: inactive; negative
- mutagenic call [4]: inactive; negative
- mutagenic call (Test System: AMES SALMONELLA TYPHIMURIUM, Strain/Indicator: TA104, Metabolic Activation: NONE, Method: STANDARD PLATE): inactive; negative

SMILES: Oc1c(I)cc(Cl)c2cccnc12
- mutagenic call (Test System: AMES SALMONELLA TYPHIMURIUM, Strain/Indicator: TA97, Metabolic Activation: HAMSTER, LIVER, S-9, AROCLOR 1254 (10%), Method: PREINCUBATION): inactive; negative
- mutagenic call (Test System: AMES SALMONELLA TYPHIMURIUM, Strain/Indicator: TA97, Metabolic Activation: HAMSTER, LIVER, S-9, AROCLOR 1254 (30%), Method: PREINCUBATION): inactive; negative
- mutagenic call (Test System: AMES SALMONELLA TYPHIMURIUM, Strain/Indicator: TA97, Metabolic Activation: NONE, Method: PREINCUBATION): inactive; negative
- mutagenic call (Test System: AMES SALMONELLA TYPHIMURIUM, Strain/Indicator: TA97, Metabolic Activation: RAT, LIVER, S-9, AROCLOR 1254 (10%), Method: PREINCUBATION): inactive; negative
- mutagenic call (Test System: AMES SALMONELLA TYPHIMURIUM, Strain/Indicator: TA97, Metabolic Activation: RAT, LIVER, S-9, AROCLOR 1254 (30%), Method: PREINCUBATION): inactive; negative
- mutagenic call (Test System: AMES SALMONELLA TYPHIMURIUM, Strain/Indicator: TA98, Metabolic Activation: HAMSTER, LIVER, S-9, AROCLOR 1254 (10%), Method: PREINCUBATION): inactive; negative
- mutagenic call (Test System: AMES SALMONELLA TYPHIMURIUM, Strain/Indicator: TA98, Metabolic Activation: HAMSTER, LIVER, S-9, AROCLOR 1254 (30%), Method: PREINCUBATION): inactive; negative
- mutagenic call [1]: inactive; negative
- mutagenic call (Test System: AMES SALMONELLA TYPHIMURIUM, Strain/Indicator: TA98, Metabolic Activation: RAT, LIVER, S-9, AROCLOR 1254 (10%), Method: PREINCUBATION): inactive; negative
- mutagenic call (Test System: AMES SALMONELLA TYPHIMURIUM, Strain/Indicator: TA98, Metabolic Activation: RAT, LIVER, S-9, AROCLOR 1254 (30%), Method: PREINCUBATION): inactive; negative
- mutagenic call (Test System: AMES SALMONELLA TYPHIMURIUM, Strain/Indicator: TA100, Metabolic Activation: HAMSTER, LIVER, S-9, AROCLOR 1254 (10%), Method: PREINCUBATION): inactive; negative
- mutagenic call (Test System: AMES SALMONELLA TYPHIMURIUM, Strain/Indicator: TA100, Metabolic Activation: HAMSTER, LIVER, S-9, AROCLOR 1254 (30%), Method: PREINCUBATION): inactive; negative
- mutagenic call [2]: inactive; negative
- mutagenic call (Test System: AMES SALMONELLA TYPHIMURIUM, Strain/Indicator: TA100, Metabolic Activation: RAT, LIVER, S-9, AROCLOR 1254 (10%), Method: PREINCUBATION): inactive; negative
- mutagenic call (Test System: AMES SALMONELLA TYPHIMURIUM, Strain/Indicator: TA100, Metabolic Activation: RAT, LIVER, S-9, AROCLOR 1254 (30%), Method: PREINCUBATION): inactive; negative
- mutagenic call (Test System: AMES SALMONELLA TYPHIMURIUM, Strain/Indicator: TA1535, Metabolic Activation: HAMSTER, LIVER, S-9, AROCLOR 1254 (10%), Method: PREINCUBATION): inactive; negative
- mutagenic call (Test System: AMES SALMONELLA TYPHIMURIUM, Strain/Indicator: TA1535, Metabolic Activation: HAMSTER, LIVER, S-9, AROCLOR 1254 (30%), Method: PREINCUBATION): inactive; negative
- mutagenic call (Test System: AMES SALMONELLA TYPHIMURIUM, Strain/Indicator: TA1535, Metabolic Activation: NONE, Method: PREINCUBATION): inactive; negative
- mutagenic call (Test System: AMES SALMONELLA TYPHIMURIUM, Strain/Indicator: TA1535, Metabolic Activation: RAT, LIVER, S-9, AROCLOR 1254 (10%), Method: PREINCUBATION): inactive; negative
- mutagenic call (Test System: AMES SALMONELLA TYPHIMURIUM, Strain/Indicator: TA1535, Metabolic Activation: RAT, LIVER, S-9, AROCLOR 1254 (30%), Method: PREINCUBATION): inactive; negative
- mutagenic call (Test System: AMES SALMONELLA TYPHIMURIUM, Strain/Indicator: TA1537, Metabolic Activation: HAMSTER, LIVER, S-9, AROCLOR 1254 (30%), Method: PREINCUBATION): inactive; negative
- mutagenic call (Test System: AMES SALMONELLA TYPHIMURIUM, Strain/Indicator: TA1537, Metabolic Activation: NONE, Method: PREINCUBATION): inactive; negative
- mutagenic call (Test System: AMES SALMONELLA TYPHIMURIUM, Strain/Indicator: TA1537, Metabolic Activation: RAT, LIVER, S-9, AROCLOR 1254 (30%), Method: PREINCUBATION): inactive; negative

SMILES: Cc1ccc2ccc3c4ccccc4cc4ccc1c2c43
- mutagenic call (Test System: AMES SALMONELLA TYPHIMURIUM, Strain/Indicator: TA100, Metabolic Activation: RAT, INTACT HEPATOCYTES, AROCLOR 1254, Method: PREINCUBATION): active; positive
- mutagenic call (Test System: AMES SALMONELLA TYPHIMURIUM, Strain/Indicator: TA100, Metabolic Activation: RAT, NADPH-FORTIFIED HOMOGENIZED HEPATOCYTES, AROCLOR 1254, Method: PREINCUBATION): active; positive

SMILES: c1ccc(-c2ccccc2OCC2CO2)cc1 (stereo unspecified)
- mutagenic call [4]: active; positive
- mutagenic call (Test System: AMES SALMONELLA TYPHIMURIUM, Strain/Indicator: TA1535, Metabolic Activation: NONE, Method: STANDARD PLATE): active; positive
